# In the supplement of paper PMC7017272:
# ± gives the standard deviation of the averaged measurements.
# How the values were obtained:
# UT-SCC-24A = assay: relative IC50 (midpoint of the fitted curve; maximal inhibition may be below 50%); higher = less potent; conditions: treatment time: 3 days
# Procedure: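 HNSCC cell lines (500 cells/well, 384-well) were cultured on plastic, on top of (2D) or embedded (3D) in Matrigel or human leiomyoma matrix Myogel (500 ug/mL; Myogel 3D mixed with rat collagen I). Cells were treated for 3 days with 5 ten-fold concentrations of each drug, and viability was read by CellTiter-Glo. Viability was normalised to DMSO (0% inhibition) and 100 uM benzethonium chloride (100% inhibition) controls and fitted with the FIMM DSRT pipeline to give IC50 (nM), maximal % inhibition and the drug sensitivity score (DSS). Suffixes _1/_2/_3 on drug names are replicates.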
# UT-SCC-40 [1] = assay: maximal % inhibition of viability relative to DMSO; higher = stronger effect; conditions: treatment time: 3 days
# Procedure: (§1)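 HNSCC cell lines (500 cells/well, 384-well) were cultured on plastic, on top of (2D) or embedded (3D) in Matrigel or human leiomyoma matrix Myogel (500 ug/mL; Myogel 3D mixed with rat collagen I). Cells were treated for 3 days with 5 ten-fold concentrations of each drug, and viability was read by CellTiter-Glo. Viability was normalised to DMSO and benzethonium chloride controls and fitted with the FIMM DSRT pipeline to give IC50 (nM), maximal % inhibition and DSS. Suffixes _1/_2/_3 are replicates. Only inhibition-mode (IC50) fits are kept.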
# UT-SCC-42B [2] = assay: as above; conditions: treatment time: 3 days
# Procedure: as §1
# UT-SCC-8 = assay: as above; conditions: treatment time: 3 days
# Procedure: as §1
# UT-SCC-73 [3] = assay: as above; conditions: treatment time: 3 days
# Procedure: as §1
# UT-SCC-81 [4] = assay: as above; conditions: treatment time: 3 days
# Procedure: as §1
# UT-SCC-44 [5] = assay: as above; conditions: treatment time: 3 days
# Procedure: as §1
# UT-SCC-24B [6] = assay: as above; conditions: treatment time: 3 days
# Procedure: as §1
# UT-SCC-42A [7] = assay: as above; conditions: treatment time: 3 days
# Procedure: as §1
# UT-SCC-40 [8] = assay: relative IC50 (midpoint of the fitted curve; maximal inhibition may be below 50%); higher = less potent; conditions: treatment time: 3 days
# In short: (§2)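 Three growth formats were used for HPV-negative HNSCC cell lines in 384-well plates at 500 cells/well: bare plastic, wells coated with Matrigel or Myogel (500 µg/mL), and embedding in Matrigel or Myogel plus rat collagen I. Compounds were added at five 10-fold concentrations, and after 3 days CellTiter-Glo 2.0 luminescence was recorded and normalised to vehicle (0.1% DMSO) and cell-killing control wells. IC50, maximal inhibition and drug sensitivity score came from percent-inhibition dose–response fitting in the FIMM pipeline.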
# UT-SCC-42B [9] = assay: as above; conditions: culture condition: plastic 2D (no matrix); treatment time: 3 days
# In short: as §2
# UT-SCC-73 [10] = assay: as above; conditions: treatment time: 3 days
# In short: as §2
# UT-SCC-81 [11] = assay: as above; conditions: treatment time: 3 days
# In short: as §2
# UT-SCC-44 [12] = assay: as above; conditions: treatment time: 3 days
# In short: as §2
# UT-SCC-106A = assay: as above; conditions: treatment time: 3 days
# In short: as §2
# UT-SCC-24B [13] = assay: as above; conditions: culture condition: on top of Myogel; treatment time: 3 days
# In short: as §2
# UT-SCC-28 = assay: as above; conditions: culture condition: embedded in Myogel + collagen I; treatment time: 3 days
# In short: as §2
# UT-SCC-42A [14] = assay: as above; conditions: treatment time: 3 days
# In short: as §2
# UT-SCC-14 = assay: as above; conditions: culture condition: on top of Matrigel; treatment time: 3 days
# In short: as §2
# [15] = culture condition: embedded in Myogel + collagen I
# [16] = culture condition: on top of Myogel
# [17] = culture condition: embedded in Matrigel
# [18] = culture condition: on top of Matrigel
# [19] = culture condition: plastic 2D (no matrix)
smiles,measurement,setting,value
CO[C@H]1C[C@@H]2CC[C@@H](C)[C@@](O)(O2)C(=O)C(=O)N2CCCC[C@H]2C(=O)O[C@H]([C@H](C)C[C@@H]2CC[C@@H](OCCO)[C@H](OC)C2)CC(=O)[C@H](C)/C=C(\C)[C@@H](O)[C@@H](OC)C(=O)[C@H](C)C[C@H](C)/C=C/C=C/C=C/1C [Everolimus],relative IC50,UT-SCC-24A; [15],0.761 nM
same,relative IC50,UT-SCC-24A; [16],10.4 nM
same,maximal % inhibition of viability,UT-SCC-40 [1]; [17],27.2 ± 25%
same,maximal % inhibition of viability,UT-SCC-40 [1]; [15],33.3 ± 4.4%
same,maximal % inhibition of viability,UT-SCC-40 [1]; [18],23.3 ± 5.5%
same,maximal % inhibition of viability,UT-SCC-40 [1]; [16],20.2 ± 10%
same,maximal % inhibition of viability,UT-SCC-40 [1]; [19],21.6 ± 8.3%
same,maximal % inhibition of viability,UT-SCC-42B [2]; [17],14.8 ± 5.8%
same,maximal % inhibition of viability,UT-SCC-42B [2]; [18],14.4 ± 2.9%
same,maximal % inhibition of viability,UT-SCC-42B [2]; [16],10.9 ± 2.4%
same,maximal % inhibition of viability,UT-SCC-42B [2]; [19],12.6 ± 3.1%
same,maximal % inhibition of viability,UT-SCC-8; [17],39.1 ± 2.8%
same,maximal % inhibition of viability,UT-SCC-8; [15],36.4 ± 12%
same,maximal % inhibition of viability,UT-SCC-8; [18],36.6 ± 9.4%
same,maximal % inhibition of viability,UT-SCC-8; [16],46.9 ± 14%
same,maximal % inhibition of viability,UT-SCC-8; [19],44.7 ± 11%
same,maximal % inhibition of viability,UT-SCC-73 [3]; [17],22.8 ± 3.8%
same,maximal % inhibition of viability,UT-SCC-73 [3]; [15],46.1 ± 20%
same,maximal % inhibition of viability,UT-SCC-73 [3]; [18],26 ± 4.4%
same,maximal % inhibition of viability,UT-SCC-73 [3]; [16],34.8 ± 1.5%
same,maximal % inhibition of viability,UT-SCC-73 [3]; [19],28 ± 2.5%
same,maximal % inhibition of viability,UT-SCC-81 [4]; [17],43.5 ± 14%
same,maximal % inhibition of viability,UT-SCC-81 [4]; [15],54.1 ± 1.6%
same,maximal % inhibition of viability,UT-SCC-81 [4]; [18],39.4 ± 3.5%
same,maximal % inhibition of viability,UT-SCC-81 [4]; [16],53.2 ± 3.5%
same,maximal % inhibition of viability,UT-SCC-81 [4]; [19],46.8 ± 3.7%
same,maximal % inhibition of viability,UT-SCC-44 [5]; [17],30.9 ± 17%
same,maximal % inhibition of viability,UT-SCC-44 [5]; [15],45 ± 2.1%
same,maximal % inhibition of viability,UT-SCC-44 [5]; [18],34 ± 2.7%
same,maximal % inhibition of viability,UT-SCC-44 [5]; [16],37.7 ± 4.2%
same,maximal % inhibition of viability,UT-SCC-44 [5]; [19],33.1 ± 5.5%
same,maximal % inhibition of viability,UT-SCC-24B [6]; [17],28.7 ± 6.1%
same,maximal % inhibition of viability,UT-SCC-24B [6]; [15],44.8 ± 5.3%
same,maximal % inhibition of viability,UT-SCC-24B [6]; [18],18.1 ± 0.91%
same,maximal % inhibition of viability,UT-SCC-24B [6]; [16],30.1 ± 8.6%
same,maximal % inhibition of viability,UT-SCC-24B [6]; [19],24.9 ± 3%
same,maximal % inhibition of viability,UT-SCC-42A [7]; [17],17.3 ± 9.2%
same,maximal % inhibition of viability,UT-SCC-42A [7]; [15],32.2 ± 2.5%
same,maximal % inhibition of viability,UT-SCC-42A [7]; [18],34.3 ± 6%
same,maximal % inhibition of viability,UT-SCC-42A [7]; [16],33.1 ± 5%
same,maximal % inhibition of viability,UT-SCC-42A [7]; [19],29.9 ± 2.9%
same,relative IC50,UT-SCC-40 [8]; [17],4.61 nM
same,relative IC50,UT-SCC-40 [8]; [19],9.09 nM
same,relative IC50,UT-SCC-42B [9],20.8 nM
same,relative IC50,UT-SCC-73 [10]; [18],1.92 nM
same,relative IC50,UT-SCC-73 [10]; [19],7.59 nM
same,relative IC50,UT-SCC-81 [11]; [15],2.53 nM
same,relative IC50,UT-SCC-81 [11]; [18],6.53 nM
same,relative IC50,UT-SCC-81 [11]; [16],6.12 nM
same,relative IC50,UT-SCC-81 [11]; [19],2.97 nM
same,relative IC50,UT-SCC-44 [12]; [15],6.3 nM
same,relative IC50,UT-SCC-44 [12]; [18],0.89 nM
same,relative IC50,UT-SCC-44 [12]; [16],1.1 nM
same,relative IC50,UT-SCC-106A; [17],28.4 nM
same,relative IC50,UT-SCC-106A; [16],8.1 nM
same,relative IC50,UT-SCC-24B [13],5.03 nM
same,relative IC50,UT-SCC-28,6.89 nM
same,relative IC50,UT-SCC-42A [14]; [15],5.97 nM
same,relative IC50,UT-SCC-42A [14]; [18],15 nM
same,relative IC50,UT-SCC-42A [14]; [16],10.5 nM
same,relative IC50,UT-SCC-14,6.41 nM
